Here are results for four molecules from PubChem BioAssay (NCI).

Test systems include NCI-H460 lung; MOLT-4 leukemia; SK-MEL-28 melanoma; U251 CNS; T-47D breast; EKVX NSCLC; ACHN renal; HOP-62 NSCLC; COLO 205 colon; KM12 colon; UO-31 renal; 786-0 renal.
What all share (experiment): DTP human tumour cell line panel, 48 h

Each structure is given as a SMILES string.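 Compound exposure: 48 hours, 5 concentrations, 96-well plates. At the TGI there is no net growth.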

On to `CCCC(=O)O[C@H]1C=C2C[C@@]34SS[C@]5(CC6=C[C@H](OC(C)=O)[C@@H]7O[C@@H]7[C@H]6N5C3=O)C(=O)N4[C@@H]2[C@H]2O[C@H]21`, for which the TGI (in general, the concentration giving total growth inhibition) turned out to be 0.379 µM in the test with NCI-H460 lung; 1.91 µM with MOLT-4 leukemia; 0.235 µM in the test with SK-MEL-28 melanoma; 0.113 µM in the test with U251 CNS; 0.605 µM in the test with T-47D breast; 0.0294 µM with EKVX NSCLC. In addition, the TGI in the test with ACHN renal is 0.0391 µM; in the test with HOP-62 NSCLC, 0.0892 µM; in the test on COLO 205 colon, 0.0637 µM; with KM12 colon, 2.29 µM; in the test with UO-31 renal it was 0.173 µM; with 786-0 renal, 0.00841 µM.

Take `O=C1O[C@H]2[C@H](O)[C@@H](OC(=O)c3cc(O)c(O)c4c3[C@@H]3C1=CC(=O)C(O)(O)C3(O)O4)[C@H](OC(=O)c1cc(O)c(O)c(O)c1)O[C@@H]2CO` (stereo partly drawn): the TGI in the test with NCI-H460 lung, with MOLT-4 leukemia, in the test on SK-MEL-28 melanoma, with U251 CNS, with T-47D breast and in the test with EKVX NSCLC was greater than 100 µM throughout. For the same molecule, the TGI with ACHN renal, with HOP-62 NSCLC, in the test on COLO 205 colon, with KM12 colon, in the test on UO-31 renal and in the test on 786-0 renal was greater than 100 µM in each case.

As for `O=C(Cc1csc(N=Nc2c(O)[nH]c3ccccc23)n1)Nc1ccccc1`, the TGI in the test with NCI-H460 lung is greater than 100 µM; in the test with MOLT-4 leukemia it was greater than 100 µM; in the test on SK-MEL-28 melanoma, 46.5 µM; in the test on U251 CNS, 55.2 µM; with T-47D breast, greater than 100 µM; in the test on EKVX NSCLC, 52.8 µM. In addition, the TGI with ACHN renal is 54.4 µM; in the test on HOP-62 NSCLC, 52.2 µM; with COLO 205 colon, greater than 100 µM; in the test with KM12 colon, greater than 100 µM; in the test on UO-31 renal it was 93.3 µM; in the test with 786-0 renal, 34.3 µM.

`CC1(C)CC23CC(C)(C)c4cccc(c42)OCc2ccc4ccc5ccc(nc5c4n2)COc2cccc1c23`: the TGI with NCI-H460 lung, with MOLT-4 leukemia, in the test on SK-MEL-28 melanoma, in the test with U251 CNS, in the test on T-47D breast and in the test on EKVX NSCLC was greater than 50 µM each time. The TGI in the test on ACHN renal, with HOP-62 NSCLC, in the test with COLO 205 colon, with KM12 colon, with UO-31 renal and in the test on 786-0 renal was greater than 50 µM throughout.
